Experimental findings from PMC5665883, “Antithrombotic properties of JJ1, a potent and novel thrombin inhibitor” (Scientific Reports, 2017) are described below.

Each structure is given as a SMILES string.

The target in one data set is T1, human α-thrombin (Homo sapiens, UniProt P00734).
T1 construct: purchased Haematologic Technologies (Essex Junction, VT)
As to the kind of experiment: Chromogenic substrate assay, Ki (Dixon). Type of data set: biochemical.

The next data set concerns the target T2, thrombin (Homo sapiens, UniProt P00734).
T2 construct: purchased Haematologic Technologies (Essex Junction, VT)
As to the kind of experiment: Enzyme-based assay of purchased virtual screening molecules, single dose. In kind it is biochemical. The following applies: single concentration of 50 μM. From the text:
Prior to the high-throughput virtual screening, we selected the best crystal structure for docking with DOCK 3.6[17] using the selected inhibitors and their physicochemically matched but topologically different decoys. […] Because the earlier enrichment of true positives is more important for high throughput SBVS, we used the value of LogAUC as a metric, selecting 2CF9-H[18] as the best structure. […] Besides, the enrichment at 1% (EF1) was 37.1. The values of LogAUC and EF1 were approximately two-fold higher than the averages (26.1 for LogAUC and 17.1 for EF1) (Figs 1 and S1). Some structures had higher AUC values than that of 2CF9-H, but the value of LogAUC was the highest for 2CF9-H (Fig. S1). The optimization necessitated the calculations of more than 2 million protein and ligand pairs. The high speed of DOCK 3.6 and the in-house Linux cluster system consisting of 128 cores efficiently managed the calculations in three days. Of the candidate molecules having the lowest scores in the high-throughput SBVS, we chose the molecules with desirable geometries and physicochemical properties by a simple manual and visual inspection. […] It is known that the scoring function of virtual screening itself is insufficient to capture such an abnormality. Table S1 and Fig. S2 list the top 40 molecules, which were selected through high-throughput SBVS; we purchased these molecules to measure enzymatic inhibitory activity.

In a further data set the target is T3, clot-bound thrombin (Homo sapiens, UniProt P00734).
T3 construct: Fibrin clots were formed by recalcification of citrated plasma and washed extensively; from tissue; host or cells: fibrin clots from recalcified citrated plasma
Nature of the data set: Clot-bound thrombin assay, FPA generation (ELISA). The following applies: 60 min of incubation, FPA by ELISA; read-out: IC50, inhibition of FPA generation by clot-bound thrombin. Type of data set: biochemical. How it is done: Fibrin clots were formed by recalcification of citrated plasma and washed extensively to remove any FPA trapped within the clots. Plasma was then placed over the washed clots and FPA generation was determined. There was a time-dependent generation of FPA in plasma that was not caused by the release of FPA trapped within the washed clots, because the addition of buffer over the clots produced only a minimal amount of FPA (5.25 ± 0.35 nM at 60 min) (Fig. 8). The endogenous FPA level was 5.05 ± 0.31 nM in these studies.
The generation of FPA in plasma with or without JJ1 was quantified in accordance with the manufacturer’s instructions by using a commercially available ELISA kit (LSBio, Seattle, WA). Values were measured using an ELISA plate reader (Tecan, Austria GmbH, Austria).

For data set [1], the system named is thrombin-catalyzed fibrin polymerization in human plasma. As to the kind of experiment: Thrombin-catalyzed fibrin polymerization. The following applies: absorbance at 360 nm. Type of data set: biochemical. The method, then:
Thrombin-catalyzed polymerization was determined every 6 s for 20 min by monitoring the turbidity of the solution at 360 nm at ambient temperature by using a spectrophotometer (TECAN, Männedorf, Switzerland). Control plasma and plasma incubated with JJ1 were diluted three-fold in […] and clotted with thrombin (final concentration: 0.5 U/mL). The maximum polymerization rate (Vmax, ΔmOD/min) from each absorbance curve was recorded.

Another data set deals with human platelets. Nature of the data set: In vitro thrombin-induced platelet aggregation. Type of data set: cell-based. The following applies: washed human platelets. The method, then:
The in vitro platelet aggregation study was performed according to a previously reported method[59],[62]. Washed human platelets were incubated with the indicated concentration of JJ1 in DMSO for 1, 3, 5, or 10 min and subsequently stimulated by thrombin in 0.9% saline solution at 37 °C for 5 min. Platelet aggregation was recorded using an aggregometer (Chronolog, Havertown, PA, USA). For the ex vivo aggregation assay, male mice were fasted overnight and the indicated concentration of JJ1 in DMSO was administered by i.v. injection. After 24 h, PRP (10^9 platelets/mL) in a total volume of 240 μL was incubated at 37 °C for 1.5 min in the aggregometer with continuous stirring at 1000 rpm and subsequently stimulated with thrombin. Platelet aggregation was recorded as described above.

Data set [2] is described as follows: Pharmacokinetics after i.v. injection. The following applies: mouse, plasma, iv, male C57BL/6 mice, 2 mg/kg, fasting. Type of data set: in vivo. The method, then:
The penile veins of male C57BL/6 mice were injected with 2 mg/kg JJ1. Approximately 50 μL of blood was obtained from the tail vein immediately before and at 5, 15, 30, 60, and 180 min after injection; 80 μL acetonitrile and internal standard solution (reserpine) were then added to these samples, and plasma samples (10 μL) were prepared by centrifugation of the blood at 13,000 rpm for 15 min at 4 °C. An aliquot (2 μL) of the supernatant was then injected into an HPLC column. The pharmacokinetic parameters were determined using the standard non-compartmental method. The area under the curve for serum was calculated using the log linear trapezoidal method on WinNonlin (version 2.0; Scientific Consulting, KY, USA). The samples were analyzed using an Accela^TM LC system coupled to a TSQ Vantage triple quadrupole mass spectrometer (Thermo Fisher Scientific Inc., USA) equipped with a HESI-II Spray source. For the LC analysis, an ACE® 5C18, 3 μm (2.1 × 50 mm) column was used. The mobile phases were (A) LC-grade® water containing 0.1% formic acid, and (B) LC grade acetonitrile containing 0.1% formic acid (B). This initial composition was increased to 95% solvent (B) for 3 minutes. The gradient program for HPLC used a flow rate of […]. […]

Data set [3] is described as follows: Organ injury markers (biochemical safety parameters). In kind it is in vivo, C57BL/6 mice. Further details: BUN: unit not given here. How it is done:
The safety of JJ1 is another promising feature. Animal safety markers such as aspartate transaminase (AST) and alanine transaminase (ALT) (markers of hepatic injury) and creatinine and blood urea nitrogen (BUN) (markers of renal injury) were assessed with blood samples obtained at 48 h after JJ1 injection. […] Serum levels of AST, ALT, BUN, and creatinine were measured using commercial assay kits (Pointe Scientific, Linclon Park, MI).

The next data set relates to human plasma. As to the kind of experiment: In vitro PT clotting time. Type of data set: biochemical. The following applies: at the maximum antithrombotic dose.
Setting [4] is: male C57BL/6 mice, 3.06 μg/mouse, 48 h after injection.

Procedure for human α-thrombin: Chromogenic substrate assays were performed using a Labsystems IEMS (Cergy Pontoise, France) microtiter plate reader. K i values were calculated according to the method of Dixon[65]. In each assay, the compound was tested at a minimum of seven concentrations, in duplicate, to obtain an inhibition curve. The following general procedures were adopted for each assay. In a 96-well microtiter plate, 25 μL of inhibitor solution or buffer was added to 50 μL of substrate. The enzyme solution (25 μL) was added just before the plate was placed in the microtiter plate reader for 1 h at 37 °C. The hydrolysis of the substrate yields p-nitroaniline, which was continuously monitored spectrophotometrically at 405 nm. The maximal initial reaction rates were calculated and expressed as millioptical density per minute.

Regarding `c1ccc2c(NC3CCCC3)nc(Nc3ccncc3)nc2c1` [JJ1], the Selectivity ratio on human α-thrombin (K i enzyme/K i α-thrombin) is reported as 1. Further, the Ki at human α-thrombin (mean ± SD (n = 5)) came out at 19 ± 0.5 nM. The “Degree of inhibition in the enzyme-based assay” value on thrombin is reported as “inhibitory effects”. Moreover, the IC50 on clot-bound thrombin turned out to be 2450 nM. The “Maximal rate of fibrin polymerization” value in data set [1] was “significantly decreased the maximal rate of fibrin polymerization”. Also, in the data set on human platelets, the “Human platelet aggregation induced by thrombin” value is “significantly inhibited human platelet aggregation induced by thrombin in a concentration-dependent manner”. Besides, in data set [2], the AUC amounted to 6100 ng·h/mL and the half-life was 3.1 h. Moreover, in data set [3] (after 2 days), the “Plasma levels of AST, ALT, BUN, and creatinine compared to DMSO-treated animals” value is recorded as “no significant differences”. In data set [3] (setting [4]), the ALT is reported as 7.5 ± 0.63 IU/L, the AST is given as 15.1 ± 1.29 IU/L, the BUN turned out to be 17.1 ± 1.31 and the Creatinine was 0.139 ± 0.012 mg/dL. The “Prolongation of PT” value with human plasma was 2.22 fold.
